Assay results published in ChEMBL document CHEMBL3797099, “Re-exploration of the mGlu₁ PAM Ro 07-11401 scaffold: Discovery of analogs with improved CNS penetration despite steep SAR” (Bioorg Med Chem Lett, 2016).

What was measured:
[1] = target: T1, Metabotropic glutamate receptor 1 (Homo sapiens, UniProt Q13255); assay: Positive allosteric modulation of human mGlu1 receptor assessed as increase in glutamate-induced calcium mobilization; type: functional
Target sequence in this assay (Q13255 whole entry): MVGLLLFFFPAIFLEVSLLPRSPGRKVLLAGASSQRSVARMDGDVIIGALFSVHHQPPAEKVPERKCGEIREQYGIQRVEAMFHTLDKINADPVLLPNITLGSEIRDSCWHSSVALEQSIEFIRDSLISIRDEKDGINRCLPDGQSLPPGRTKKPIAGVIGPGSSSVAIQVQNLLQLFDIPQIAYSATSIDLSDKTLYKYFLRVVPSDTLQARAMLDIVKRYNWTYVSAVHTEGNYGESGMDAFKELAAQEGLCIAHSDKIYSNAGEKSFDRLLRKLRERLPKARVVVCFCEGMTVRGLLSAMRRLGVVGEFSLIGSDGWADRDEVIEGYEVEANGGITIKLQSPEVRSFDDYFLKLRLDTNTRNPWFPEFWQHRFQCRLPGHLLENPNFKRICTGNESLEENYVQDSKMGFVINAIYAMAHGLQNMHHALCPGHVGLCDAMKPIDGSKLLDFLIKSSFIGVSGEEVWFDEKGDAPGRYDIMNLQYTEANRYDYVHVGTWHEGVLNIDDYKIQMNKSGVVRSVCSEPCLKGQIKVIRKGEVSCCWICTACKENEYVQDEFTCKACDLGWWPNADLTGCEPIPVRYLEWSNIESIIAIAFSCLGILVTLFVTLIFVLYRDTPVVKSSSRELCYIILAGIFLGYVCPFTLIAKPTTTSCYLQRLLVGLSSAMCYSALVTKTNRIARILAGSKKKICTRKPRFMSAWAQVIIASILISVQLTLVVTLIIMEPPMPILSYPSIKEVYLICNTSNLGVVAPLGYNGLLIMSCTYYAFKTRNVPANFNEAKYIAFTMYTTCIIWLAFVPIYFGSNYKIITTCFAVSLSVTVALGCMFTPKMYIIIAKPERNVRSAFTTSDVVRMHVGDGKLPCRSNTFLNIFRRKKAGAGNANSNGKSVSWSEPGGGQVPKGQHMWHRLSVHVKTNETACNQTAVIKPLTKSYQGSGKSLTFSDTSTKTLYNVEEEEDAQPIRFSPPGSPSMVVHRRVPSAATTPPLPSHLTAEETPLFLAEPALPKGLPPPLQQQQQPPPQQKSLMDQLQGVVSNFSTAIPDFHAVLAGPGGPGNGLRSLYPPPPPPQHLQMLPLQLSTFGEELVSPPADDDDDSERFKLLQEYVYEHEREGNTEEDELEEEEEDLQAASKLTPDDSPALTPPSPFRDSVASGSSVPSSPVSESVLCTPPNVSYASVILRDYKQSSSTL

[2] = target: T1, Metabotropic glutamate receptor 1; assay: Positive allosteric modulation of human mGlu1 receptor assessed as increase in glutamate-induced calcium mobilization relative to glutamate; type: functional
Target sequence in this assay (Q13255 19-1194 limits assumed): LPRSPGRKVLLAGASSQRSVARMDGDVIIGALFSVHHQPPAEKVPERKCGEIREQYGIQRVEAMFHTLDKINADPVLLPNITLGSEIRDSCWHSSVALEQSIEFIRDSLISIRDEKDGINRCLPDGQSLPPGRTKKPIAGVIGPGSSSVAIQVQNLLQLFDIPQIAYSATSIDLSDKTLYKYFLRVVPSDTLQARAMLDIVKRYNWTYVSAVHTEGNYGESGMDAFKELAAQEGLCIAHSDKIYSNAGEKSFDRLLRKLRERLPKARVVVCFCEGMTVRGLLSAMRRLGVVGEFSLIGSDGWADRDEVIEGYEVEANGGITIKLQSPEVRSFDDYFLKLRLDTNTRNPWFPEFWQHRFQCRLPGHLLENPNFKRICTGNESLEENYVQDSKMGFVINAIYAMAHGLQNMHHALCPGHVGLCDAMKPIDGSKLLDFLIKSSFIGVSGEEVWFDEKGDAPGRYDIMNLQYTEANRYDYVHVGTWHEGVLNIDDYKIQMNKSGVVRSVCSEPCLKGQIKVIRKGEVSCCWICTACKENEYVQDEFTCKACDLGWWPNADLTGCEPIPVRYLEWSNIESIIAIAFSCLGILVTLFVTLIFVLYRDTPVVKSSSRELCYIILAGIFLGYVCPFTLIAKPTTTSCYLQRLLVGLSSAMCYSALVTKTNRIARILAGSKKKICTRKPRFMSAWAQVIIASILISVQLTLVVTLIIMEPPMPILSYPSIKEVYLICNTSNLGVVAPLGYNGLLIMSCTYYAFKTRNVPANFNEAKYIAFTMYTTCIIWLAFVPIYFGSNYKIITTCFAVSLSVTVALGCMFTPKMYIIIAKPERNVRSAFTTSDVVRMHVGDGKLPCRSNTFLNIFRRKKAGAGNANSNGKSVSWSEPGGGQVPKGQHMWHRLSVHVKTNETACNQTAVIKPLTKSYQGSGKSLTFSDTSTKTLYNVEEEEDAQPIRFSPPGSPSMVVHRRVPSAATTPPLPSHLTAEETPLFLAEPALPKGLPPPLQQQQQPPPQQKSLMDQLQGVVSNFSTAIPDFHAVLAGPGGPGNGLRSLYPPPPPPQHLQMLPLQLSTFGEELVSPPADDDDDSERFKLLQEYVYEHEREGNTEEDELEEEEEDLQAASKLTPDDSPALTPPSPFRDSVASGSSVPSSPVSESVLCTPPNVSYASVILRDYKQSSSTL

[3] = target: Metabotropic glutamate receptor 1 (Rattus norvegicus) (UniProt P23385); assay: Positive allosteric modulation of rat mGlu1 receptor assessed as increase in glutamate-induced calcium mobilization relative to glutamate; type: functional
Chain of Metabotropic glutamate receptor 1 (Rattus norvegicus) (P23385 19-1199 limits assumed): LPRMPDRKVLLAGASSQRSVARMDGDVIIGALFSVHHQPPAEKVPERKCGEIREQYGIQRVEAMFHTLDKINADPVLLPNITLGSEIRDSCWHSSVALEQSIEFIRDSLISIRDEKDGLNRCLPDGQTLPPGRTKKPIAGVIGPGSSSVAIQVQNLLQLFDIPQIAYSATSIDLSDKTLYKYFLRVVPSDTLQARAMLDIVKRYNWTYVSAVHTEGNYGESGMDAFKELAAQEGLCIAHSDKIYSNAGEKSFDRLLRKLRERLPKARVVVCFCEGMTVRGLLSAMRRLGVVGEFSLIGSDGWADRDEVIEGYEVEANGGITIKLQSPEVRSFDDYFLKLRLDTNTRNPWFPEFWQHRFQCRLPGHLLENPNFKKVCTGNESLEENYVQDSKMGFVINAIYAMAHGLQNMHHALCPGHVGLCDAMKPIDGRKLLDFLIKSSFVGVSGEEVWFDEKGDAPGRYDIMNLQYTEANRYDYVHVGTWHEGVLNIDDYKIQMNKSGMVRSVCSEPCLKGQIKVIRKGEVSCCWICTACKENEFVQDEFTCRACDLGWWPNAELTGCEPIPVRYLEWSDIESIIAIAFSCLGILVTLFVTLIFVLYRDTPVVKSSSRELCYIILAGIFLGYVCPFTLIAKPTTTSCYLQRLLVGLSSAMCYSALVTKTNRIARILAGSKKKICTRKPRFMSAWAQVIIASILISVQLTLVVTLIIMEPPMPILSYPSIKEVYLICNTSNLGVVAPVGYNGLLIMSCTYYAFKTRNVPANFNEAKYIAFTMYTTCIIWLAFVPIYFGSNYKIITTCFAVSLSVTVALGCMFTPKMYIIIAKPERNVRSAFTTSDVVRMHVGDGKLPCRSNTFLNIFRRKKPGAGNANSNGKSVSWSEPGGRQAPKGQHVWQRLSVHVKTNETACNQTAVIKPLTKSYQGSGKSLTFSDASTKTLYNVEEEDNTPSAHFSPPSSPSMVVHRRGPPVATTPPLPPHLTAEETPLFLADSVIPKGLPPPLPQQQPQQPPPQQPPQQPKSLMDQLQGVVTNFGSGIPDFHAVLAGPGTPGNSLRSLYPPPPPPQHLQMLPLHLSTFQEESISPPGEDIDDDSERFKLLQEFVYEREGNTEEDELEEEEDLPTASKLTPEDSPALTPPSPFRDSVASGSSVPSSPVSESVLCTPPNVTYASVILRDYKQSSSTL

[4] = Fraction unbound in human plasma; type: ADME, cell-free
[5] = target: Cytochrome P450 2D6 (Homo sapiens, UniProt P10635); assay: Inhibition of CYP2D6 (unknown origin); type: ADME
Chain of Cytochrome P450 2D6 (P10635 whole entry): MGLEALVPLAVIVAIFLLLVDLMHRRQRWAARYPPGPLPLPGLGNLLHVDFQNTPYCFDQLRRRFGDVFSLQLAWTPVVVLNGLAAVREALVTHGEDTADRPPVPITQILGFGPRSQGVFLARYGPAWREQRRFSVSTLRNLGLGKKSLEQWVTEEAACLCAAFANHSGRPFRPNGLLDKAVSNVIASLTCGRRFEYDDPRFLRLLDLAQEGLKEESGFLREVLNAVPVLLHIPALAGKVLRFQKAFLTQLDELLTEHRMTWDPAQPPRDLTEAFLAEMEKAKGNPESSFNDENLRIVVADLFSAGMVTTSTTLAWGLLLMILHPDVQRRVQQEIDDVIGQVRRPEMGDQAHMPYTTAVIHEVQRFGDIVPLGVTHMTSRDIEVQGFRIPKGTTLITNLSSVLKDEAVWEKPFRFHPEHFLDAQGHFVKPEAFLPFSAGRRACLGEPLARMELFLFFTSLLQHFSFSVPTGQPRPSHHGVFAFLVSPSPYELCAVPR

[6] = Intrinsic clearance in human liver microsomes; type: ADME; settings: read-out: CLH
[7] = target: Cytochrome P450 2C9 (Homo sapiens, UniProt P11712); assay: Inhibition of CYP2C9 (unknown origin); type: ADME
[8] = system: Plasma; assay: Plasma concentration in rat at 0.25 mg/kg, iv measured at the last time point; type: ADME, organism-based; settings: in vivo
[9] = target: T1, Metabotropic glutamate receptor 1; assay: Positive allosteric modulation of human mGlu1 receptor assessed as potentiation of glutamate-induced effect at 10 uM relative to control
Target sequence in this assay (Q13255 19-1194 limits assumed): as the sequence (Q13255 19-1194 limits assumed) above

[10] = system: Brain; assay: Fraction unbound in rat brain homogenate; type: ADME, tissue-based
[11] = target: Metabotropic glutamate receptor 1 (Rattus norvegicus, UniProt P23385); assay: Positive allosteric modulation of rat mGlu1 receptor assessed as increase in glutamate-induced calcium mobilization; type: functional
[12] = system: Brain; assay: Drug uptake in rat brain at 0.25 mg/kg, iv measured at the last time point; type: ADME, organism-based; settings: in vivo
[13] = target: Cytochrome P450 3A4 (Homo sapiens, UniProt P08684); assay: Inhibition of CYP3A4 (unknown origin); type: ADME
Chain of Cytochrome P450 3A4 (P08684 whole entry): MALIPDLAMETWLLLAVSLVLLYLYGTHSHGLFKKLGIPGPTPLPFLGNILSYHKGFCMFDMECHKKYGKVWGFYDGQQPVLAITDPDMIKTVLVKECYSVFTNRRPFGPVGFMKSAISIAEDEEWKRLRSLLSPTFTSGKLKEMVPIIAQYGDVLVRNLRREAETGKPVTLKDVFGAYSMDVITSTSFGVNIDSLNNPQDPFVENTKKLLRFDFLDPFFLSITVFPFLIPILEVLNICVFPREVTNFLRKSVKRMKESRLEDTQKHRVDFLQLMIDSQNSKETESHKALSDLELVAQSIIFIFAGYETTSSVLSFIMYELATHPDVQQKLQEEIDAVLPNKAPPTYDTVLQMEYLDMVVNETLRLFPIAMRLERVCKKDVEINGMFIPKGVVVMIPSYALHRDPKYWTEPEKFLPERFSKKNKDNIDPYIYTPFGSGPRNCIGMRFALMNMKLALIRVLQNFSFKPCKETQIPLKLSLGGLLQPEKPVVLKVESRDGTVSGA

[14] = Ratio of drug level in brain to plasma in rat at 0.25 mg/kg, iv; type: ADME, organism-based
[15] = target: T2, Cytochrome P450 1A2 (Homo sapiens, UniProt P05177); assay: Inhibition of CYP1A2 (unknown origin); type: ADME
T2 sequence (P05177 whole entry): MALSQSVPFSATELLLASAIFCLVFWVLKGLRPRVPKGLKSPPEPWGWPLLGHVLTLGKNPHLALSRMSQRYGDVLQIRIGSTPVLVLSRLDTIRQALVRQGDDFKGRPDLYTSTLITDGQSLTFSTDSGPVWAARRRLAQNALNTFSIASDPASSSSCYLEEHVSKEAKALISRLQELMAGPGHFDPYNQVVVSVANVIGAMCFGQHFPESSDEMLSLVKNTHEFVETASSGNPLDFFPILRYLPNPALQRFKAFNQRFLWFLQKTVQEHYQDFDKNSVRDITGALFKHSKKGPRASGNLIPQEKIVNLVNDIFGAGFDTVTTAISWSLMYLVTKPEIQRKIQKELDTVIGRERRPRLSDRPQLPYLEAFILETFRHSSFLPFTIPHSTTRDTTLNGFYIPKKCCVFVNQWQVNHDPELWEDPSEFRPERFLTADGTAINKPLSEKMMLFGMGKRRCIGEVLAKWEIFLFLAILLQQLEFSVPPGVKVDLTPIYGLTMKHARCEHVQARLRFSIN

[16] = target: T1, Metabotropic glutamate receptor 1; assay: Positive allosteric modulation of human mGlu1 receptor assessed as glutamate efficacy at 10 uM (reference value: 95.2 +/- 3.5 %)
Target sequence in this assay (Q13255 19-1194 limits assumed): as the sequence (Q13255 19-1194 limits assumed) above

[17] = system: Plasma; assay: Fraction unbound in rat plasma; type: ADME, cell-free
[18] = target: T1, Metabotropic glutamate receptor 1; assay: Positive allosteric modulation of human mGlu1 receptor expressed in wild type T-Rex 293 cells assessed as increase in glutamate-induced calcium mobilization incubated for 2 mins before glutamate stimulation for 2.2 mins; type: functional, cell-based
Target sequence in this assay (Q13255 whole entry): as the sequence (Q13255 whole entry) above

[19] = target: T1, Metabotropic glutamate receptor 1; assay: Positive allosteric modulation of human mGlu1 receptor expressed in wild type T-Rex 293 cells assessed as increase in glutamate-induced calcium mobilization incubated for 2 mins before glutamate stimulation for 2.2 mins relative to glutamate; type: functional, cell-based
Target sequence in this assay (Q13255 19-1194 limits assumed): as the sequence (Q13255 19-1194 limits assumed) above

## Cc1nc(NC(=O)C2c3ccccc3Oc3ccccc32)sc1C
[1]
  pEC50: < 5
[1]; read-out: EC50
  EC50: > 10000 nM
[2]
  %max: 68%

## CC(C)c1csc(NC(=O)C2c3ccccc3Oc3ccccc32)n1
[3]
  %max: 111%
[1]; read-out: EC50
  EC50: 900 nM
[4]
  Fu: 0.001
[5]
  IC50: 26.5 µM
[6]
  CLint scaled: 15.5 mL/min/kg
[7]
  IC50: 2100 nM
[8]
  Cp: 77.8 ng/mL
[9]
  fold change (FC): 4.6
[10]
  Fu: 0.001
[11]; read-out: EC50
  EC50: 2400 nM
[2]
  %max: 89%
[12]
  Drug uptake: 78.7 ng/g
[13]
  IC50: > 30 µM
[14]
  Kp: 1.01
[15]
  IC50: 19 µM
[16]
  Efficacy: 115%
[17]
  Fu: 0.002

## O=C(Nc1nc2ccccc2s1)C1c2ccccc2Oc2ccccc21
[1]; read-out: EC50
  EC50: 4800 nM
[2]
  %max: 96%

## Cc1nsc(NC(=O)C2c3ccccc3Oc3ccccc32)n1
[1]; read-out: EC50
  EC50: 2700 nM
[2]
  %max: 101%

## N#Cc1csc(NC(=O)C2c3ccccc3Oc3ccccc32)n1
[3]
  %max: 124%
[1]; read-out: EC50
  EC50: 710 nM
[1]; read-out: pEC50 (converted)
  EC50: 724 nM
[4]
  Fu: 0.027
[5]
  IC50: 10.3 µM
[6]
  CLint scaled: 9.85 mL/min/kg
[7]
  IC50: 2900 nM
[8]
  Cp: 80.2 ng/mL
[9]
  fold change (FC): 5.4
[10]
  Fu: 0.017
[11]; read-out: EC50
  EC50: 1800 nM
[2]
  %max: 110%
[12]
  Drug uptake: 83.6 ng/g
[13]
  IC50: > 30 µM
[14]
  Kp: 1.19
[15]
  IC50: 2.9 µM
[16]
  Efficacy: 115%
[17]
  Fu: 0.005

## O=C(Nc1nc(C(F)(F)F)co1)C1c2ccccc2Oc2ccccc21
[3]
  %max: 109%
[5]
  IC50: > 30 µM
[18]
  EC50: 246 nM
[8]
  Cp: 276 ng/mL
[9]
  fold change (FC): 6.9
[10]
  Fu: 0.001
[11]; read-out: EC50
  EC50: 276 nM
[12]
  Drug uptake: 81 ng/g
[13]
  IC50: > 30 µM
[14]
  Kp: 0.29
[16]
  Efficacy: 109%
[19]
  %max: 96%

## O=C(Nc1ccccn1)C1c2ccccc2Oc2ccccc21
[1]; read-out: EC50
  EC50: 1700 nM
[2]
  %max: 58%

## O=C(Nc1nccs1)C1c2ccccc2Oc2ccccc21
[3]
  %max: 111%
[1]; read-out: EC50
  EC50: 1400 nM
[11]; read-out: EC50
  EC50: 3600 nM
[11]; read-out: pEC50 (converted)
  EC50: 3720 nM
[2]
  %max: 75%

## O=C(Nc1cncs1)C1c2ccccc2Oc2ccccc21
[1]
  pEC50: < 5
[1]; read-out: EC50
  EC50: > 10000 nM
[2]
  %max: 54%
